According to patent EP1954678B1, “NOVEL NK1 AND NK2 ANTAGONISTS” (Abbott Products GmbH, priority 2005, dated 2007):
Where two headings read alike, the source gives them in different places.

Assays:
human NK1 receptors = target: T1, human NK1 receptors (Homo sapiens, UniProt P25103); test: Binding of the test substances to NK1 receptors in vitro ([3H]-Substance P displacement, CHO cell membranes); details: [3H]-Substance P as ligand; membranes of CHO cells expressing the human NK1 receptor; Ki calculated from IC50; read-out: pKi (NK1) (converted)
T1 construct: expressed in transfected cells; host or cells: CHO cells (membrane preparation)
Description: In The Netherlands, the affinity of the test substances to human NK1 receptors was measured in vitro.
The receptor binding studies were performed with [^3H]-Substance P as ligand. For the binding test, different samples of a membrane preparation of CHO cells (= egg cells of the Chinese hamster, Chinese hamster oocytes), which express the human NK1 receptor ("Accession Number" of the associated nucleic acid sequence = M74290; "Accession Number" of the associated protein sequence = P25103; cf. Takeda, Y.; Chou, K. B., Takeda, J.; Sachais, B.S. and Krause, J. E; Biochemical and Biophysical Research Communications, 179(3) (1991) 1232 - 1240), were incubated with a solution of the marked ligand, with the incubation mixtures containing no test substance or additions of different concentrations of test substance. Then, separation of bound and free ligands was performed in each of the samples with the aid of glass-fibre filtration. The fraction remaining in the filter was washed several times with buffer solution and then the radioactivity of the fraction remaining in the filter was measured using a beta scintillation counter.
For the compounds of Examples 1 to 14, that concentration which effects half maximum displacement of the bound ligand was determined as IC50 of the respective test substance. From this, the corresponding inhibition constant (Ki value) of the test substance was calculated, and was stated as the negative common logarithm of the Ki value (= pKi value). The pKi value is a measurement of the affinity of the test substances to human NK1 receptors.

human NK2 receptors = target: T2, human NK2 receptors (Homo sapiens, UniProt P21452); test: Binding of the test substances to NK2 receptors in vitro ([3H]-SR 48968 displacement, CHO cell membranes); details: [3H]-SR 48968 as ligand; membranes of CHO cells expressing the human NK2 receptor; 90 min incubation; Ki calculated from IC50; read-out: pKi (NK2) (converted)
T2 construct: expressed in transfected cells; host or cells: CHO cells (membrane preparation)
T2 sequence (P21452 1-398): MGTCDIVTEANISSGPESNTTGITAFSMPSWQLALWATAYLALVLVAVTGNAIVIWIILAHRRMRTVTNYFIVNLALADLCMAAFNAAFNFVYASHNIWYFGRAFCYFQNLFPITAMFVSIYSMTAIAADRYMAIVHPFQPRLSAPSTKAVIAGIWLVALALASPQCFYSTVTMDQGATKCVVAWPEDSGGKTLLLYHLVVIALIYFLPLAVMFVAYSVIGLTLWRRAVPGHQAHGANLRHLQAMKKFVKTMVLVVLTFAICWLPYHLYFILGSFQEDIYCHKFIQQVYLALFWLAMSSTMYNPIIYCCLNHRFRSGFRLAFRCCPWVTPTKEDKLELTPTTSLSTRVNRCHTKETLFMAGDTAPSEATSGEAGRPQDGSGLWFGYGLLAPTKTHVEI
Description: The affinity of the test substances to human NK2 receptors was measured in vitro. The ability of the test substances to displace the selective NK2 receptor antagonist SR 48968 (= saredutant) used as reference ligand from its corresponding bond was determined.
The receptor binding studies were carried out with radioactively marked [^3H]-SR 48968 (from Amersham) as ligand. For the binding test, different samples of a membrane preparation of CHO cells (= egg cells of the Chinese hamster, Chinese hamster oocytes), which express the human NK2 receptor (for preparation, see N.P. Gerard et al., Journal of Biological Chemistry 265/33 (1990) 20455-20462), were incubated for 90 minutes (= min.) with a solution of the marked ligand, with the incubation mixtures containing no test substance or additions of different concentrations of test substance. Then in each case the membrane-bound ligands in the samples were separated from free ligands by filtration. The fraction remaining in the filter was washed several times with buffer solution, before its radioactivity was measured using a liquid scintillation counter. That concentration which effects half-maximum displacement of the bound reference ligand was determined as IC50 of the respective test substance. The inhibition constant (Ki value) of the test substance was calculated from the respective IC50 value, and was stated as the negative logarithmised value thereof (pKi).
If several measurements were performed, the average thereof was listed each time. The pKi value is a measurement of the affinity of the test substances to human NK2 receptors.

NK1 receptors [1] = target: T3, NK1 receptors (Cavia porcellus, UniProt P30547); test: Functional NK1 antagonism on isolated guinea pig aorta ring preparations (Substance P induced relaxation); parameters: from tissue; host or cells: guinea pig aorta ring preparations; species or system Pirbright-White guinea pigs
Description: In The Netherlands, the action antagonistic to NK1 receptors of the test substances was measured in vitro on isolated ring preparations, kept in an oxygenated nutrient solution, of the aortas of Pirbright-White guinea pigs.
In order to measure the contraction of the vessel muscles, the preparations were fixed to a hook, joined by a thread to a force measuring apparatus and the contractions were recorded in each case on a plotter. The aorta preparations were tonicised with phenylephrine. […] The relaxations before and after the administration of the test substance were quantified in percent. The effective concentration of the half maximum inhibition of the relaxation of the tone (= EC50) was calculated. The negative common logarithm of the EC50 value (= pEC50) was given as characteristic variable. The pEC50 value is a measurement of the functional effectiveness of the test substances on NK1 receptors.

NK2 receptors [2] = target: T4, NK2 receptors (Cavia porcellus, UniProt Q64077); test: Functional NK2 antagonism on isolated guinea pig gall-bladder preparations (NKA induced contraction); parameters: from tissue; host or cells: guinea pig gall-bladder preparations; species or system Pirbright-White guinea pigs
T4 sequence (Q64077 1-402): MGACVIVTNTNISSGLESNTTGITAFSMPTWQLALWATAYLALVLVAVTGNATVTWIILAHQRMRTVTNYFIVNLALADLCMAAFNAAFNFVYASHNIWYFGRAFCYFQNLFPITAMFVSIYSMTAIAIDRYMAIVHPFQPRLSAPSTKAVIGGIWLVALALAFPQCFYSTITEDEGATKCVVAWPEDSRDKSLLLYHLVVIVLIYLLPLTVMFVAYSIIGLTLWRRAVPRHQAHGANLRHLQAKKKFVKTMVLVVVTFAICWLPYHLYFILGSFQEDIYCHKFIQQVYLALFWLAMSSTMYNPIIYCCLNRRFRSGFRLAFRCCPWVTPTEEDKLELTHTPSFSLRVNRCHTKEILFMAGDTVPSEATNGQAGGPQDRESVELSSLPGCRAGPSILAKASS
Description: The NK2 receptor-antagonising action of the test substances was determined on isolated gall-bladder preparations from Pirbright-White guinea pigs, held in an oxygen-saturated nutrient solution. To this end, the preparations were fastened on one hand in the nutrient solution to organ holders and on the other hand on a force meter by a thread.
The concentration of the test substances was increased iteratively in the subsequent experiments as a function of the result in logarithmic whole or half steps, until at least one concentration above or below 50% inhibition of contraction was determined (up to at most 10^-5 mol/l). For each concentration, the average value of inhibition of contraction was calculated from 2 to 4 preparations. In each case, the concentration of half-maximum inhibition (IC50) per test substance was calculated as characteristic variable.

[3] = target: T5, cloned human NK1 receptors (Homo sapiens, UniProt P25103); test: Ca2+ measurements using FLIPR for NK1 activity in CHO cells; type: cell-based; details: substance P 10^-8 M as agonist; compound applied 7 min before; pA2 calculated from IC50
T5 construct: expressed in transfected cells
Text: (§1) The NK receptor is coupled to Gq.
(§2) All steps were done under sterile conditions. […] The results are summarized in table 5: Table 5: pA2 data for NK1 and NK2: […]

[4] = target: T6, cloned human NK2 receptors (Homo sapiens, UniProt P21452); test: Ca2+ measurements using FLIPR for NK2 activity in CHO cells; type: cell-based; details: NKA 10^-7 M as agonist; compound applied 7 min before; pA2 calculated from IC50
T6 construct: expressed in transfected cells
T6 sequence (P21452 1-398): T2 sequence (P21452 1-398)
Text: as §1, §2

NK1 receptors [5] = target: T3, NK1 receptors; test: NK-1-receptor-antagonistic effectiveness in vivo in anaesthetised guinea pigs (NKA test stimulus, early hypotension); parameters: from tissue; host or cells: whole anaesthetised guinea pig (in vivo); species or system Pirbright-White guinea pigs; details: guinea pig, iv, read-out: ED50 iv after 1 min (cumulative) NK1 (early hypotension)
Text: (§3) The NK-1- and NK-2-antagonistic activities of the test substances were investigated in anaesthetised guinea pigs in each case after intravenous (= i.v.) and oral (= p.o.) administration in vivo. With the present test model it is possible to detect both NK-2-antagonistic effects in three different organ systems (respiratory tracts, colon and circulation) and NK-1-antagonistic effects (rapid drop in blood pressure) in an animal simultaneously.
(§4) Pirbright-White guinea pigs of a body weight of 500-700 g were anaesthetised with ketamine/xylazine (67/13 mg/kg subcutaneously, initial dose, further doses administered as required). The animals were provided with an intravenous catheter in order to administer the substance and an intra-arterial catheter to measure the blood pressure. The animals were artificially ventilated via a tracheal cannula and the respiratory pressure was recorded by means of a pressure transducer. A balloon was introduced into the distal colon of the animals for manometric recording of colon motility by means of a pressure transducer. Blood pressure, heart rate, respiratory pressure and colonic pressure were measured continuously for each animal and plotted on a recorder and by means of a digital data-processing system. […] The second phase of delayed hypotension (= phase of maximum hypotension after 2-5 min.) on the other hand is mediated via NK-2 receptors, since they can be blocked by specific NK-2 receptor antagonists. […] Table 6: NK-1- and NK-2-receptor-antagonistic effective-ness of the test substances of Formula I on guinea pigs in vivo after intravenous administration
(§5) These ED50 values obtained from cumulative dose effect curves are plotted in table 6.
(§6) The antagonistic effects of the test substances were then determined as "area under the curve" ("AUC") over the investigation period after administration of the test substances (1 - 180 min after administration) and the ED50 values after oral administration obtained therefrom were plotted in table 7. Table 7: NK-1- and NK-2-receptor-antagonistic effective-ness of the test substances of Formula I on guinea pigs in vivo after oral administration

NK2 receptors [6] = target: T4, NK2 receptors; test: NK-2-receptor-antagonistic effectiveness in vivo in anaesthetised guinea pigs (NKA test stimulus: late hypotension, bronchoconstriction, colonic pressure); parameters: from tissue; host or cells: whole anaesthetised guinea pig (in vivo); species or system Pirbright-White guinea pigs; details: guinea pig, iv
Text: as §3, §4, §5, §6

[7] = read-out: ED50 iv after 1 min (cumulative) NK2 (broncho-constriction)
[8] = read-out: ED50 iv after 1 min (cumulative) NK2 (colonic motility)
[9] = read-out: ED50 iv after 1 min (cumulative) NK2 (late hypotension)

T3 sequence (P30547 whole entry): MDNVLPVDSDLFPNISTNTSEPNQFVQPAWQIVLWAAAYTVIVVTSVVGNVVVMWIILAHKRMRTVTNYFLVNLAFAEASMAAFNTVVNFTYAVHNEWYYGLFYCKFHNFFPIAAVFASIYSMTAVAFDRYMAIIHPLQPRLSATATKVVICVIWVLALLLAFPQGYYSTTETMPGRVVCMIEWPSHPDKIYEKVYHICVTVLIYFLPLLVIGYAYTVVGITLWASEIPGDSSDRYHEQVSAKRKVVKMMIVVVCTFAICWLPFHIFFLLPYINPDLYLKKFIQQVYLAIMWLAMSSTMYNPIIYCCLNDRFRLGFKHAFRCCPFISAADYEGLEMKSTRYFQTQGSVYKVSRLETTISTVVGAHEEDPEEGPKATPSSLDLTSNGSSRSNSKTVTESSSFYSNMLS
T1 sequence (P25103 whole entry): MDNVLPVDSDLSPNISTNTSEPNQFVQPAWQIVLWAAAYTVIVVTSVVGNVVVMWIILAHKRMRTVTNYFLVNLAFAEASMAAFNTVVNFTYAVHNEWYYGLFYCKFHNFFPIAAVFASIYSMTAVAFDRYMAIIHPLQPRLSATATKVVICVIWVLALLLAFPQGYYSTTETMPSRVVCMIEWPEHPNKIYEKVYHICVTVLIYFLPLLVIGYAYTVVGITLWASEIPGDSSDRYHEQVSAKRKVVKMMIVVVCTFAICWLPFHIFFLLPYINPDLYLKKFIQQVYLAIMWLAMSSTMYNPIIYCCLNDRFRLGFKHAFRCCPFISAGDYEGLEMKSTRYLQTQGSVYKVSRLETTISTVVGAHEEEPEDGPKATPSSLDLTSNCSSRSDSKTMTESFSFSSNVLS
T5 sequence (P25103 whole entry): as above

Row | Compound | Ki (human NK1 receptors) [nM] | Ki (human NK2 receptors) [nM] | EC50 (NK1 receptors [1]) [nM] | IC50 (NK2 receptors [2]) [nM] | Kb [3] [nM] | Kb [4] [nM] | ED50 (NK1 receptors [5]) [µmol/kg] | ED50 (NK2 receptors [6]; [7]) [µmol/kg] | ED50 (NK2 receptors [6]; [8]) [µmol/kg] | ED50 (NK2 receptors [6]; [9]) [µmol/kg]
1 | CN(C[C@@H](CCN1CCN([C@@H](c2cccs2)[C@H](O)CO)CC1)c1ccc(Cl)c(Cl)c1)C(=O)c1cc(C#N)cc2ccccc12 [Compound 9, 3-cyano-N-[(2S)-2-(3,4-dichlorophenyl)-4-{4-[(1R,2S)-2,3-dihydroxy-1-(2-thienyl)propyl]piperazin-1-yl}butyl]-N-methyl-1-naphthamide] | 10 | 63.1 | – | – | 3.16 | – | 0.099 | 0.943 | 0.287 | 1.04
2 | CN(C[C@@H](CCN1CCN([C@@H](c2ccsc2)[C@H]2COC(=O)O2)CC1)c1ccc(Cl)c(Cl)c1)C(=O)c1cc(C#N)cc2ccccc12 [Compound 10, 3-cyano-N-[(2S)-2-(3,4-dichlorophenyl)-4-{4-[(S)-[(4S)-2-oxo-1,3-dioxolan-4-yl](3-thienyl)methyl]piperazin-1-yl}butyl]-N-methyl-1-naphthamide] | 10 | 100 | – | – | – | – | 0.041 | 0.045 | 0.109 | 0.04
3 | CN(C[C@@H](CCN1CCN([C@@H](c2ccccc2)[C@H](O)CO)CC1)c1ccc(Cl)c(Cl)c1)C(=O)c1cc(C#N)cc2ccccc12 [Compound 23, 3-cyano-N-[(2S)-2-(3,4-dichlorophenyl)-4-{4-[(1S,2S)-2,3-dihydroxy-1-phenylpropyl]piperazin-1-yl)butyl]-N-methyl-1-naphthamide] | – | – | – | – | – | – | 0.029 | 0.725 | 0.961 | 1.17

Results, then the molecule that gave them:

Row | Ki (human NK1 receptors) [nM] | Ki (human NK2 receptors) [nM] | EC50 (NK1 receptors [1]) [nM] | IC50 (NK2 receptors [2]) [nM] | Kb [3] [nM] | Kb [4] [nM] | ED50 (NK1 receptors [5]) [µmol/kg] | ED50 (NK2 receptors [6]; [7]) [µmol/kg] | ED50 (NK2 receptors [6]; [8]) [µmol/kg] | ED50 (NK2 receptors [6]; [9]) [µmol/kg] | Compound
4 | 1.26 | 50.1 | 0.1 | 31.6 | – | – | – | – | – | – | CN(C[C@@H](CCN1CCN([C@@H](c2ccsc2)[C@H](O)[C@@H](O)[C@H](O)CO)CC1)c1ccc(Cl)c(Cl)c1)C(=O)c1cc(C#N)cc2ccccc12 [Compound 5, 3-cyano-N-[(2S)-2-(3,4-dichlorophenyl)-4-{4-[(1S,2S,3R,4R)-2,3,4,5-tetrahydroxy-1-(3-thienyl)pentyl]piperazin-1-yl}butyl]-N-methyl-1-naphthamide]
5 | 7.94 | 31.6 | – | – | 0.631 | 1.26 | 0.07 | 1.13 | 0.135 | 0.803 | CN(C[C@@H](CCN1CCN([C@@H](c2ccsc2)[C@H](O)CO)CC1)c1ccc(Cl)c(Cl)c1)C(=O)c1cc(C#N)cc2ccccc12 [Compound 8, 3-cyano-N-[(2S)-2-(3,4-dichlorophenyl)-4-{4-[(1S,2S)-2,3-dihydroxy-1-(3-thienyl)propyl]piperazin-1-yl}butyl]-N-methyl-1-naphthamide]
